Data published in patent US20250000952A1, “POLYPEPTIDE BASED ON RECEPTOR-INTERACTING PROTEIN KINASE-3 METHYLATION MODIFICATION AND APPLICATION THEREOF IN CELL NECROPTOSIS-RELATED DISEASES” (Air Force Medical University of the People's Liberation Army, priority 2023, published 2025).
Entries after “also recorded” stand apart in the source; their conditions may differ.

Key:
[1] = system: intestinal tissues of Prmt5^iIEC-KO mice; assay: HE histological analysis of mouse intestine; format: in vivo; conditions: compared with TAT and unmodified (TAT-mRIP3) polypeptide group
pRIP1, pRIP3 and pMLKL = assay: Protein detection of necroptosis marker molecules after TNF-α + Z-VAD; format: cell-based, mouse; conditions: L929, TNF-α (20 ng/ml)+Z-VAD (20 μM), peptide 10 μM, 20 μM and 50 μM, 12 hours
Experimental: Furthermore, the necroptosis reaction in cells is detected. Mouse fibroblast L929 is treated with the classic cell necroptosis inducer TNF-α (20 ng/ml)+Z-VAD (20 μM), and at the same time, the peptides TAT (20 μM), TAT-mRIP3-WT and TAT-mRIP3-SDMA (10, 20 and 50 μM) are added. Cell samples are collected for protein detection after 12 hours.

mouse fibroblast L929 = assay: Necroptosis stimulation experiment, cell morphology after TNF-α + Z-VAD; format: cell-based; conditions: L929, TNF-α (20 ng/mL)+Z-VAD (20 μM), polypeptide 20 μM, compared with TAT-mRIP3
Experimental: The necroptosis induced by TNF-α (20 ng/mL)+Z-VAD (20 μM) is in mouse fibroblast L929, and polypeptide (20 μM) is added to intervene. After 12 hours treatment, the morphological changes of the cell are analyzed: Dimethyl sulfoxide (DMSO) is used as control group); the scale is 20 μm.
After 12 hours, the necroptosis of the cells is stimulated.

mouse L929 cells = assay: Membrane penetrating experiment (fluorescence microscopy of FITC-labeled polypeptide); format: cell-based; conditions: 20 μM polypeptide, 24 hours
Experimental: Under the condition of necroptosis activation, it is observed whether the symmetrical dimethyl modified polypeptide fragment is capable of reducing the necroptosis and protecting cells from death. 20 μM polypeptide is added to mouse L929 cells for 24 hours, and the efficiency of polypeptide entering the target cells is analyzed by fluorescence microscope, with the scale of 275 μm, and the results are shown in FIG. 1A-FIG. 1B.

Prmt5^iIEC-KO mice = assay: Survival (lifetime) analysis of tamoxifen-induced Prmt5 knockout mice; format: in vivo, mouse; conditions: tamoxifen 75 mg/kg, polypeptide 10 mg/kg intraperitoneally once a day until death, ** p<0.01
Experimental: Tamoxifen-induced mouse intestinal epithelial cell-specific gene knockout mice (Prmt5^iIEC-KO) are used. Tamoxifen is given (75 mg/kg) to mice at age of 8 weeks to induce Prmt5 gene knockout and cell necroptosis (intraperitoneal injection, once a day, for 5 days). Using Prmt5^iIEC-KO, while tamoxifen is injected to induce Prmt5 gene knockout, mice are injected with different types and concentrations of peptides intraperitoneally, and the survival cycle of mice is analyzed, ** p<0.01. Mice are injected intraperitoneally with 10 mg/kg polypeptide once a day until the mice die.

## TAT-mRIP3-SDMA: GRKKRRQRRRPQQAQFGRG (SDMA) GWQPFHK; cell-penetrating peptide TAT connected to mouse RIP3 peptide with symmetric di-methylated arginine 479
[1]
  intestinal tissue necrosis and intestinal cavity structure (HE staining): significant protective effect
pRIP1, pRIP3 and pMLKL
  expression levels of pRIP1, pRIP3 and pMLKL: decreasing the expression levels; also recorded: lower than control group
Mouse fibroblast L929
  protection against necroptosis / cell death (cell morphology): reducing cell death; also recorded: obvious protective effect
Mouse L929 cells
  efficiency of polypeptide entering the target cells (fluorescence intensity): capable of entering mouse lung fibroblast L929
Prmt5^iIEC-KO mice
  lifetime of mice: significantly prolonged
